Results taken from patent publication US11873298B2, “Compounds and uses thereof” (JANSSEN PHARMACEUTICA NV, priority 2017, dated 2024).
Values joined by “and” are separate entries in the source; they are usually repeats but may differ in a detail not shown here. Equal entries are not always repeated.

Assays:
Assay type in all cases: cell-based
[1] = target: T1, SCD1 (Homo sapiens, UniProt O00767); assay: Growth inhibition of humanized yeast strain expressing SCD1 as sole desaturase; conditions: humanized yeast strain expressing SCD1
T1 construct: host or cells: S. cerevisiae ole1Δ strain (W303 pdr1Δ pdr3Δ background), plasmid pRS316 with TDH3 promoter and CYC1 terminator
T1 sequence (O00767 1-359): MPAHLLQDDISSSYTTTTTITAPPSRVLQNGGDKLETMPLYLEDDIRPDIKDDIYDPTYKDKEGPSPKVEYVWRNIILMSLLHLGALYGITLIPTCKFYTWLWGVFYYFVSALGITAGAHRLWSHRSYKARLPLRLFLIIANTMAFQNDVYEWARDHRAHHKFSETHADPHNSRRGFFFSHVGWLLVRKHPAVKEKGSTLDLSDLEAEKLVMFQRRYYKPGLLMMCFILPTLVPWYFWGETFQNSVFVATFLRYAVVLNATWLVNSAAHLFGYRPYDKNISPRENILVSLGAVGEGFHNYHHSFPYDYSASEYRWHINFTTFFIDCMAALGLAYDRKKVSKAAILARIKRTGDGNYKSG
Outline: (§1)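 OD600 growth read-out. ole1Δ yeast, pdr1Δ pdr3Δ, with Ole1/SCD1/SCD5 on a plasmid; SX-Ura media throughout; 2× cell density 0.02 in CSM-Galactose; DMSO compound dilutions; humidified 30° C.; Ole1 stopped at 24 h, SCD1/SCD5 at 40 h.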

[2] = target: T2, SCD5 (Homo sapiens, UniProt Q86SK9); assay: Growth inhibition of humanized yeast strain expressing SCD5 as sole desaturase; conditions: humanized yeast strain expressing SCD5
T2 construct: host or cells: S. cerevisiae ole1Δ strain (W303 pdr1Δ pdr3Δ background), plasmid pRS316 with TDH3 promoter and CYC1 terminator
T2 sequence (Q86SK9 1-330): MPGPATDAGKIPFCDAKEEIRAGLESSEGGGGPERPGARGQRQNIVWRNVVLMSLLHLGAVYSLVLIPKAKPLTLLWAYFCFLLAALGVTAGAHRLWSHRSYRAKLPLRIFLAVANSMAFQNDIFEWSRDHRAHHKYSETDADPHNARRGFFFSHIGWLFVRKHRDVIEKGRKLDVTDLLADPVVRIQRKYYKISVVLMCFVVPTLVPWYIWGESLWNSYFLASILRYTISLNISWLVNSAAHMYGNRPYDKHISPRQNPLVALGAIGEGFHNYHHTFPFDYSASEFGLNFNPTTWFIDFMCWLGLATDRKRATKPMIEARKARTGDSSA
Outline: as §1

[3] = target: T3, Ole1 (Saccharomyces cerevisiae, UniProt P21147); assay: Growth inhibition of yeast strain expressing Ole1 as sole desaturase; conditions: yeast strain expressing Ole1 as sole desaturase
T3 construct: expressed in transfected cells; host or cells: S. cerevisiae ole1Δ strain (W303 pdr1Δ pdr3Δ background), plasmid pRS316 with TDH3 promoter and CYC1 terminator
T3 sequence (P21147 1-510): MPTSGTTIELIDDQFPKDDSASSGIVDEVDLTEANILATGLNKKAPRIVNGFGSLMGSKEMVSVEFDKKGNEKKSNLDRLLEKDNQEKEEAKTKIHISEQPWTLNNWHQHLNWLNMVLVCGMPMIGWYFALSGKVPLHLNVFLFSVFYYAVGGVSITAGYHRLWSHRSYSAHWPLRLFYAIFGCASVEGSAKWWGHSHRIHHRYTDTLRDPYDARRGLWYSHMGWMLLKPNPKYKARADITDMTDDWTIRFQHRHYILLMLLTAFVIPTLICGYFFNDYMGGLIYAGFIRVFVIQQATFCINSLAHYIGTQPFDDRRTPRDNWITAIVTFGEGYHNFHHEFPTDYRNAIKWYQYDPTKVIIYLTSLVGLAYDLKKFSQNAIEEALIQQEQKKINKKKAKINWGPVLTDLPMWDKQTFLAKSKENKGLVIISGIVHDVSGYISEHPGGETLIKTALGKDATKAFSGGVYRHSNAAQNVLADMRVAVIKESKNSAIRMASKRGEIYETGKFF
Outline: as §1

Question: How did the IC50 [1] turn out when `Cc1nn(C)c2cc(-c3nc([C@@H]4C[C@H]5CC[C@@H](C4)N5C(=O)OC(C)(C)C)no3)ccc12` [Compound 341] was run?
Answer: > 45 µM

Question: What about the “SCD1 % Max Inhibition” value [1] of the same compound?
Answer: 45.2%

Question: And the IC50 [2]?
Answer: > 45 µM

Question: What about the “SCD5 % Max Inhibition” value [2] of the same compound?
Answer: 45.6%

Question: And the IC50 [3]?
Answer: > 45 µM

Question: What about the “OLE1 % Max Inhibition” value [3] of the same compound?
Answer: 91.7%

Question: With `O=C([C@H]1CC(=O)N(c2ccccc2)C1)N1CCC(c2nc(N3CC4(COC4)C3)no2)CC1` [Compound 316] as the compound, how does the IC50 [1] read?
Answer: ≥ 45 µM

Question: And the “SCD1 % Max Inhibition” value [1]?
Answer: 69.01%

Question: What about the “SCD5 % Max Inhibition” value [2] of the same compound?
Answer: 80%

Question: And the IC50 [3]?
Answer: ≥ 45 µM

Question: And the “OLE1 % Max Inhibition” value [3]?
Answer: 89.26%

Question: Which IC50 [1] does the source give for `Cn1c(=O)n(C)c2cc(-c3noc(C4CCN(C(=O)CNC(=O)c5cccnc5)CC4)n3)ccc21` [Compound 233] here?
Answer: > 45 µM

Question: What about the “SCD1 % Max Inhibition” value [1] of the same compound?
Answer: 73.65%

Question: What about the IC50 [2] of the same compound?
Answer: > 45 µM

Question: What about the “SCD5 % Max Inhibition” value [2] of the same compound?
Answer: 74.91%

Question: And the IC50 [3]?
Answer: > 45 µM

Question: What about the “OLE1 % Max Inhibition” value [3] of the same compound?
Answer: 18.46%

Question: What does the source list for `O=C([C@H]1CC(=O)N(c2ccccc2)C1)N1CCC(c2nc(-c3ccc(Br)s3)no2)CC1` [Compound 248]?
Answer: SCD1 % Max Inhibition [1]: 3.09%; IC50 [2]: > 45 µM; SCD5 % Max Inhibition [2]: 13.59%; IC50 [3]: > 45 µM; OLE1 % Max Inhibition [3]: 73.12%

Question: `Cc1nn(C)c2cc(-c3noc(C4CCN(C(=O)CN5Cc6ccccc6C5=O)CC4)n3)ccc12` [Compound 165] was tested. Which IC50 [1] did it give?
Answer: > 45 µM

Question: What about the “SCD1 % Max Inhibition” value [1] of the same compound?
Answer: 94.44%

Question: What about the IC50 [2] of the same compound?
Answer: > 45 µM

Question: What about the “SCD5 % Max Inhibition” value [2] of the same compound?
Answer: 80.23%

Question: What about the IC50 [3] of the same compound?
Answer: > 45 µM

Question: And the “OLE1 % Max Inhibition” value [3]?
Answer: 2.01%

Question: For `Cc1nn(C)c2cc(-c3noc(N4CCN(C(=O)c5cccc(F)c5)CC4)n3)ccc12` [Compound 270], which “SCD1 % Max Inhibition” value [1] is on record?
Answer: 82.42%

Question: What about the IC50 [2] of the same compound?
Answer: > 45 µM

Question: What about the “SCD5 % Max Inhibition” value [2] of the same compound?
Answer: 12.30%

Question: What about the IC50 [3] of the same compound?
Answer: 41.8 µM

Question: And the “OLE1 % Max Inhibition” value [3]?
Answer: 63.00%

Question: For `Cc1nn(C)c2cc(-c3noc(N4CC5(CN(C(=O)CNC(=O)c6ccccc6)C5)C4)n3)ccc12` [Compound 212], which IC50 [1] is on record?
Answer: > 45 µM

Question: And the “SCD1 % Max Inhibition” value [1]?
Answer: 76.79%

Question: What about the IC50 [2] of the same compound?
Answer: > 45 µM

Question: What about the “SCD5 % Max Inhibition” value [2] of the same compound?
Answer: 76.28%

Question: What about the IC50 [3] of the same compound?
Answer: > 45 µM

Question: What about the “OLE1 % Max Inhibition” value [3] of the same compound?
Answer: 100.82%

Question: Which IC50 [1] does the source give for `CCn1nc(C)c2ccc(-c3noc(C4CCN(C(=O)CNC(=O)c5ccccc5)CC4)n3)cc21` [Compound 299] here?
Answer: ≥ 45 µM

Question: What about the “SCD1 % Max Inhibition” value [1] of the same compound?
Answer: 89.6% and 62.80%

Question: And the IC50 [2]?
Answer: > 45 µM

Question: What about the “SCD5 % Max Inhibition” value [2] of the same compound?
Answer: 30.1% and 22.61%

Question: What about the IC50 [3] of the same compound?
Answer: > 45 µM

Question: And the “OLE1 % Max Inhibition” value [3]?
Answer: 17.5% and 13.58%

Question: What does the source list for `Cc1nn(C)c2cc(-c3noc(C4CCN(C(=O)N[C@@H]5C[C@@H]5c5ccccc5)CC4)n3)ccc12` [Compound 329]?
Answer: SCD1 % Max Inhibition [1]: 16.2%; IC50 [2]: > 45 µM; SCD5 % Max Inhibition [2]: 13.4%; IC50 [3]: > 45 µM; OLE1 % Max Inhibition [3]: 12.5%

Question: Which results are given for `CCOc1ccc(-c2noc(N3CCN(C(=O)CN4Cc5ccccc5C4=O)CC3)n2)cc1OC` [Compound 225]?
Answer: IC50 [1]: > 45 µM; SCD1 % Max Inhibition [1]: 94.06%; IC50 [2]: > 45 µM; SCD5 % Max Inhibition [2]: 88.95%; IC50 [3]: > 45 µM; OLE1 % Max Inhibition [3]: 20.97%

Question: For `CCN1C(=O)COc2ccc(-c3nc(C4(c5ccc(OC)cc5)CC4)no3)cc21` [Compound 158], which IC50 [1] is on record?
Answer: > 45 µM

Question: And the “SCD1 % Max Inhibition” value [1]?
Answer: 78.34%

Question: And the IC50 [2]?
Answer: > 45 µM

Question: What about the “SCD5 % Max Inhibition” value [2] of the same compound?
Answer: 91.96%

Question: What about the IC50 [3] of the same compound?
Answer: > 45 µM

Question: And the “OLE1 % Max Inhibition” value [3]?
Answer: 89.93%

Question: Which results are given for `Cc1nn(C)c2cc(-c3noc(C4CCN(C(=O)C5CC(=O)N(c6ccc(F)cn6)C5)CC4)n3)ccc12` (centres unmarked) [Compound 275]?
Answer: IC50 [1]: > 45 µM; SCD1 % Max Inhibition [1]: 76.51%; IC50 [2]: > 45 µM; SCD5 % Max Inhibition [2]: 78.05%; IC50 [3]: > 45 µM; OLE1 % Max Inhibition [3]: 11.24%

Question: With `Cc1nn(C)c2cc(-c3noc(C4CCN(C(=O)CNC(=O)c5cccnc5)CC4)n3)ccc12` [Compound 197] as the compound, how does the IC50 [1] read?
Answer: > 45 µM

Question: What about the “SCD1 % Max Inhibition” value [1] of the same compound?
Answer: 66.87%

Question: And the IC50 [2]?
Answer: > 45 µM

Question: What about the “SCD5 % Max Inhibition” value [2] of the same compound?
Answer: 61.44%

Question: And the IC50 [3]?
Answer: > 45 µM

Question: What about the “OLE1 % Max Inhibition” value [3] of the same compound?
Answer: 4.80%
